GI50 and TGI data for 14 compounds are collected here from PubChem BioAssay (NCI).

What all share (test): growth of human tumour cells (NCI), 48 h
Assay [1] relates to 786-0 renal.
For assay [2], the system named is EKVX NSCLC.
For assay [3], the system named is HL-60(TB) leukemia.
Assay [4] relates to NCI-H23 lung.
The subject of assay [5] is OVCAR-8 ovarian.
Assay [6] relates to SF-268 CNS.
Assay [7] has as its system SF-539 CNS.
Assay [8] has as its system SK-MEL-2 melanoma.
For assay [9], the system named is UACC-257 melanoma.
Assay [10] concerns UACC-62 melanoma.

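Five compound concentrations were applied to cells in 96-well plates for 48 hours; endpoints were derived by simple linear interpolation of the resulting dose-response curve. Abbreviation: GI50, concentration required for 50% inhibition of growth. The concentration for full growth arrest is given as TGI.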

As to `C[C@H]1[C@@H](OCC(CO[C@H]2O[C@@H]3O[C@@]4(C)CC[C@H]5[C@H](C)CC[C@@H]([C@H]2C)[C@@]35OO4)=NOCC(=O)O)OC2O[C@@]3(C)CC[C@H]4[C@H](C)CC[C@@H]1[C@@]24OO3` (stereo not given in full), the GI50 was 0.112 µM in assay [1]; 0.0982 µM in assay [2]; below 0.01 µM in assay [3]; below 0.0283 µM in assay [4]; 0.0332 µM in [5]; below 0.0231 µM in assay [6]. The GI50 in assay [7] was 0.442 µM; in assay [8], 0.346 µM; in assay [9], 0.0266 µM; in [10], 0.0336 µM. In addition, the TGI in [1] came out at 23 µM; in assay [2], 22.2 µM; in assay [3], 13.3 µM; in [4] it was 18.1 µM; in [5], 16.4 µM; in [6], 0.889 µM. Besides, the TGI was 20.9 µM in assay [7], 14.8 µM in assay [8], 16.4 µM in assay [9] and 15.5 µM in assay [10].
`O=C1C2=C(c3ccccc31)C(c1ccccc1Cl)N1C(=O)CSC1=N2` (stereo not given): the TGI in assay [1], in [2], in assay [3], in [4], in assay [5] and in assay [6] was above 100 µM throughout. In addition, the TGI in assay [7], in assay [8], in assay [9] and in assay [10] was above 100 µM in each case.
As to `C[Se]C(=O)CC1=C2C=C(F)C=CC2/C(=C\c2ccc(S(C)=O)cc2)C1C` (stereo not given), the GI50 in [1] is 0.207 µM; in assay [2], below 0.0113 µM; in assay [3], 0.416 µM; in assay [4], 0.065 µM; in assay [5], 0.0447 µM; in assay [6], below 0.01 µM. Moreover, the GI50 is 0.0371 µM in assay [7], 0.432 µM in [8], 0.0875 µM in assay [9] and 0.41 µM in assay [10]. The TGI in assay [1] was 1.71 µM; in assay [2], 0.0967 µM; in assay [3], 2.41 µM; in assay [4], 1.03 µM; in assay [5], above 100 µM; in assay [6], 0.0242 µM. Also, the TGI in [7] was 0.0923 µM; in assay [8] it was 3.04 µM; in assay [9], 2.42 µM; in assay [10], 2.3 µM.
`N#Cc1nc(-c2ccccc2)oc1S(=O)(=O)N1CCOCC1`: the GI50 is 16 µM in assay [1]; 4.4 µM in assay [2]; 2.08 µM in assay [3]; 8.6 µM in [4]; 3.55 µM in assay [5]; 13.5 µM in [6]. The GI50 is 2.6 µM in [7], 12.7 µM in [8], 4.74 µM in assay [9] and 9.33 µM in [10]. Besides, the TGI in assay [1] turned out to be 32 µM; in [2], 24.9 µM; in assay [3], 4.79 µM; in assay [4], 26 µM; in [5] it was 16.2 µM; in assay [6] it was 40.4 µM. Also, the TGI turned out to be 7.69 µM in assay [7], 29.8 µM in [8], 19 µM in [9] and 21.4 µM in assay [10].
In the case of `CCSC1=CC(=O)c2ccccc2C1=O`, the GI50 in [1] was 9.25 µM; in [2] it was 7.82 µM; in assay [3] it was 0.389 µM; in assay [4] it was 9.05 µM; in assay [5] it was 1.75 µM; in assay [6] it was 4.98 µM. In addition, the GI50 in assay [7] is 12.7 µM; in assay [8], 6.48 µM; in assay [9] it was 1.6 µM; in assay [10] it was 4.79 µM. For the same compound, the TGI amounted to 22.3 µM in [1]; 23.2 µM in assay [2]; 1.8 µM in assay [3]; 26.6 µM in assay [4]; 3.8 µM in assay [5]; 17.1 µM in [6]. The TGI in assay [7] is 28.2 µM; in assay [8], 15.9 µM; in assay [9], 3.89 µM; in [10] it was 17.2 µM.
In the case of `O=c1nc2cc(-c3ccccc3)[nH]c2nn1-c1c(Cl)cc(Cl)cc1Cl`, the TGI in assay [1] is above 100 µM; in assay [2] it was 74 µM; in assay [3], 57.1 µM; in assay [4] it was 50.2 µM; in assay [5] it was 95.8 µM; in assay [6], above 100 µM. For the same compound, the TGI in assay [7] was found to be 33.5 µM; in assay [8], 94 µM; in assay [9] it was 79.6 µM; in assay [10] it was 35.6 µM.
On to `C[C@@H]1CC[C@@]2(OC1)O[C@H]1C[C@H]3[C@@H]4CC=C5C[C@@H](O[C@@H]6O[C@H](CO)[C@@H](O[C@@H]7O[C@@H](CO)[C@H](O)[C@H]7O)[C@H](O)[C@H]6O[C@@H]6O[C@@H](C)[C@H](O)[C@@H](O)[C@H]6O)CC[C@]5(C)[C@H]4CC[C@]3(C)[C@H]1[C@@H]2C`, for which the GI50 is 1.37 µM in assay [1]; 1.62 µM in [2]; 1.44 µM in assay [3]; 1.58 µM in assay [4]; 0.657 µM in [5]; 1.21 µM in assay [6]. Further, the GI50 in assay [7] was 0.758 µM; in assay [8] it was 1.67 µM; in assay [9] it was 1.31 µM; in [10], 0.909 µM. The TGI was determined as 2.68 µM in assay [1]; 3.04 µM in assay [2]; 2.81 µM in assay [3]; 2.97 µM in assay [4]; 1.96 µM in assay [5]; 2.47 µM in assay [6]. The TGI was found to be 2.02 µM in assay [7], 3.04 µM in [8], 2.64 µM in assay [9] and 2.11 µM in [10].
As for `C[Si](C)(C)/C=C/CN1C(=O)CCC1O` (stereo not given), the TGI in assay [1], in [2], in [3], in assay [4], in [5] and in [6] was above 100 µM each time. The TGI in assay [7], in assay [8], in assay [9] and in [10] was above 100 µM in each case.
With `O=c1c([Se]c2coc3ccccc3c2=O)coc2ccccc12`, the TGI is 32.9 µM in assay [1]; 33.6 µM in [2]; above 100 µM in assay [3]; 29.6 µM in assay [4]; 25.5 µM in [5]; 33.8 µM in [6]. Also, the TGI worked out at 24.2 µM in assay [7], 32.4 µM in assay [8], 31.3 µM in assay [9] and 30.9 µM in [10].
As to `C=C1C(C)C2C(Cc3ccccc3)NC(=O)C23C(OC(C)=O)/C=C/C(C)(O)CC(C)C/C=C/C3C1O` (stereo not given), the TGI in assay [1] is above 100 µM; in [2], above 96.7 µM; in assay [3] it was 36 µM; in assay [4], 91.6 µM; in assay [5] it was above 100 µM; in [6] it was 41.2 µM. In addition, the TGI in assay [7] is 13 µM; in assay [8] it was 76.5 µM; in assay [9], 86.5 µM; in assay [10], above 91.8 µM.
Consider `COC(=O)C1=C(C(=O)OC)C2(C(=O)OC)OC1(OC)C(C1(C(=O)OC)C(C(=O)OC)=C1C(=O)OC)=C2C(=O)OC` (stereo not given), for which the TGI in assay [1], in [2], in assay [3], in [4], in assay [5] and in assay [6] was above 100 µM in each case. Further, the TGI in assay [7], in assay [8], in [9] and in assay [10] was above 100 µM in each case.
In the case of `CCCC[C@@H](COC(=O)N(Cc1cccs1)Cc1cccs1)NC(=O)N[C@@H](CC(=O)OC)c1ccc2c(c1)OCO2`, the GI50 in assay [1], in [2], in assay [3], in assay [4], in [5] and in assay [6] was above 100 µM each time. In addition, the GI50 in [7], in [8], in [9] and in assay [10] was above 100 µM throughout. Also, the TGI in assay [1], in assay [2], in assay [3], in assay [4], in assay [5] and in assay [6] was above 100 µM each time. Moreover, the TGI in assay [7], in [8], in [9] and in assay [10] was above 100 µM each time.
In the case of `CC[C@@H]1OC2(C)CC(S(=O)(=O)c3ccccc3)CC1O2` (stereo not given in full), the TGI in [1], in assay [2], in assay [3], in [4], in [5] and in assay [6] was above 100 µM in each case. Besides, the TGI in [7], in [8], in assay [9] and in assay [10] was above 100 µM in each case.
For the compound `COc1ccc(O)c2c1C(=O)CCCC2=O`, the TGI in assay [1], in assay [2], in [3], in [4], in assay [5] and in assay [6] was above 100 µM throughout. For the same compound, the TGI in assay [7], in assay [8], in assay [9] and in [10] was above 100 µM throughout.
